The text below walks through data of US20020151581A1, “Glucose and lipid lowering compounds” (priority 1998, published 2002).

Molecules are shown by their SMILES.

Type in all cases: biochemical
Common to all, as to details: test compound 100 μM

The target of one assay is T1, hepatic lipase (Homo sapiens, UniProt P11150).
T1 sequence (P11150 23-499): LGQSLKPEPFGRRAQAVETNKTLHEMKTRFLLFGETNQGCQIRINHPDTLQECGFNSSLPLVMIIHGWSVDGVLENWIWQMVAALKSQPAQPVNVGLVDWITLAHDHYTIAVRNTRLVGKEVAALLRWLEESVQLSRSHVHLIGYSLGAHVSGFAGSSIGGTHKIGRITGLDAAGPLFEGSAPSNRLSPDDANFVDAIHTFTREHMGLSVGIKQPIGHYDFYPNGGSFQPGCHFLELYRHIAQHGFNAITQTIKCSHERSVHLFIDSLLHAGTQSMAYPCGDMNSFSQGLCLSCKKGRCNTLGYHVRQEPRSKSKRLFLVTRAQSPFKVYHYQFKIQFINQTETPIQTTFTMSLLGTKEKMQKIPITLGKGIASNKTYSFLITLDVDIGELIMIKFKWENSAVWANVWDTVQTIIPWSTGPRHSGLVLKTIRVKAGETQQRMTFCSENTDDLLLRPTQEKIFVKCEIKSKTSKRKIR
Briefly: Inhibition of hepatic lipase, glycerol stabilized triolein substrate. Set-up: Pur. Hepatic Lipase + test compound (enzyme activity): unit not given beside the values.

A further assay concerns the target T2, lipoprotein lipase (Homo sapiens, UniProt P06858).
T2 sequence (P06858 28-475): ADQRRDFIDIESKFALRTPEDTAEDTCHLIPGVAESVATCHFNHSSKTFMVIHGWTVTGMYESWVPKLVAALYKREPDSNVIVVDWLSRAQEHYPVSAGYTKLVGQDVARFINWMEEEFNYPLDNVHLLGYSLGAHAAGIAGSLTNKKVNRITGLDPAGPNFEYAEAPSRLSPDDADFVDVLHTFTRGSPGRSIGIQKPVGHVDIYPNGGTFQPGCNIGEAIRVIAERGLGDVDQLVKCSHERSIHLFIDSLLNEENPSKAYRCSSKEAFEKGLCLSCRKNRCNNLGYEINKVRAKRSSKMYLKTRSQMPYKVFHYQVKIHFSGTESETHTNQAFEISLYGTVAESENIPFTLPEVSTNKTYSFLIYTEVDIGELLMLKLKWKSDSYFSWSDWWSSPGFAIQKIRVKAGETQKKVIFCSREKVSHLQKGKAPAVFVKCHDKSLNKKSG
The experiment in a line: Inhibition of lipoprotein lipase, glycerol stabilized triolein substrate.

In assay [1] the target is T3, hormone-sensitive lipase derived from a preparation of 3T3-cell lysate (Mus musculus, UniProt P54310).
T3 construct: hormone-sensitive lipase derived from a preparation of 3T3-cell lysate; endogenous in cells; host or cells: 3T3-L1 cell lysate
T3 sequence (P54310 1-759): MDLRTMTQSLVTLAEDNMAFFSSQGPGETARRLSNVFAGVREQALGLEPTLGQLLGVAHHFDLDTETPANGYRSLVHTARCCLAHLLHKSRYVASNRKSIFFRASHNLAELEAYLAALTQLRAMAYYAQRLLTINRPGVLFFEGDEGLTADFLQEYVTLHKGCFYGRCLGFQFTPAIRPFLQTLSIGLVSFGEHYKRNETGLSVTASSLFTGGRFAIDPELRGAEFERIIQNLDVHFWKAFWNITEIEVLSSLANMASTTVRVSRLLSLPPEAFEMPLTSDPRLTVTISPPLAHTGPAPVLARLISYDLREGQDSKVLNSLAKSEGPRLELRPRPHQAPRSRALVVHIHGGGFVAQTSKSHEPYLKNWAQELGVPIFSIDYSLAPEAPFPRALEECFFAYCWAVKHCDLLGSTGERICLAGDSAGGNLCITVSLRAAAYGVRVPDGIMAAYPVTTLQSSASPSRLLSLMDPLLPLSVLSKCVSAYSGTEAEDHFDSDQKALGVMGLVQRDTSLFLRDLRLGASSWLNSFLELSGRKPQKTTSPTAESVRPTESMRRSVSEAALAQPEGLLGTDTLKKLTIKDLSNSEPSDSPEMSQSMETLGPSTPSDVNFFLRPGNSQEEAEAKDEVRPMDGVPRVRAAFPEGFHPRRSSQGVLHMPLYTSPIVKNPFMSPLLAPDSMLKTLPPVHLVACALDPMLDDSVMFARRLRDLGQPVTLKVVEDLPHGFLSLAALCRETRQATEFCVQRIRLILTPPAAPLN
The experiment in a line: Inhibition of hormone-sensitive lipase from 3T3-L1 cell lysate on glycerol-stabilized triolein. The protocol: Recombinant hormone-sensitive lipase protein isolated from a bacterial expression vector was pre-incubated with a compound of the invention (e.g., 100 μM) prior to the addition of substrate, emulsified triolein phosphatidylcholine/phosphatidylinositol (PC/PI), to initiate the reaction. At various time points, aliquots of the reaction were taken, and the level of glycerol used as an index of enzyme activity. Pharmacological specificity is determined by incubating test compound with other mammalian and non-mammalian lipase enzyme systems to assess inhibition of activity. The assay was conducted using triolein concentrations from 42 μM to 835 μM.
In a similar manner to that described in Example 4 above, 2α-benzoyloxy-4,5,7,8,11αH-eudesman-8,12-olide at 100 μM was evaluated for ability to activity of recombinant hormone-sensitive lipase and hormone-sensitive lipase derived from a preparation of 3T3-cell lysate on glycerol-stabilized triolein.

Usually inhibition stands for the change of the read-out against control, counted positive when it falls.

Consider `CC1C[C@H](OC(=O)c2ccccc2)C[C@]2(C)C[C@H]3OC(=O)[C@@H](C)[C@H]3CC12` (stereo partly drawn) [2α-benzoyloxy-4,5,7,8,11αH-eudesman-8,12-olide], for which the “inhibition of hepatic lipase (in words)” value at hepatic lipase is “failed to significantly inhibit”. Also, the “Pur. Hepatic Lipase + test compound (enzyme activity)” value at hepatic lipase (triolein substrate 30 μM) is on record as 0.08; at hepatic lipase (triolein substrate 67 μM) it was 0.37; on hepatic lipase (triolein substrate 100 μM), 0.69; at hepatic lipase (triolein substrate 201 μM) it was 6.36; on hepatic lipase (triolein substrate 400 μM) it was 30.80; on hepatic lipase (triolein substrate 1000 μM), 151.60. For the same compound, the “inhibition of lipoprotein lipase (in words)” value on lipoprotein lipase was “failed to significantly inhibit”. The “Lipoprotein Lipase + test compound (enzyme activity)” value at lipoprotein lipase (triolein substrate 30 μM) is reported as 0.7; at lipoprotein lipase (triolein substrate 67 μM), 1.8; at lipoprotein lipase (triolein substrate 134 μM) it was 4.9; on lipoprotein lipase (triolein substrate 264 μM), 10.3; on lipoprotein lipase (triolein substrate 1000 μM), 67.4. Further, the inhibition at 100 µM in assay [1] (triolein 30 μM) came to 63%; in assay [1] (triolein 67 μM), 56%; in assay [1] (triolein 100 μM), 51%; in assay [1] (triolein 201 μM), 41%; in assay [1] (triolein 400 μM), 38%; in assay [1] (triolein 601 μM), 30%. In addition, the inhibition at 100 µM in assay [1] (triolein 800 μM) came to 18%; in assay [1] (triolein 1000 μM) it was 15%.
